We go through 20 compounds from PubChem BioAssay AID330 (DTP/NCI, 2004).

Each structure is given as a SMILES string. Values joined by “and” are separate entries in the source; they are usually repeats but may differ in a detail not shown here. Identical values can stand only once. Inconclusive results and toxic doses are left out.

The subject of this assay is P388 leukemia ip, CD2F1 mice, survival T/C. As to the kind of experiment: NCI In Vivo Anticancer Drug Screen. Data for tumor model P388 Leukemia (intraperitoneal) in CD2F1 (CDF1) mice. As to conditions: endpoint: median survival time, higher = longer survival. Put shortly: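 Mice carrying the transplanted tumor received test compound or vehicle. Survival was recorded in each group, and the value is the treated-group measurement divided by that of the vehicle-treated control group.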

Where [1] appears, read: dose: 12.5 mg/kg/injection, schedule: Q04DX002 (ip), vehicle: saline with Tween-80.
Setting [2] is: dose: 25.0 mg/kg/injection, schedule: Q04DX002 (ip), vehicle: saline with Tween-80.
Setting [3] is: dose: 12.5 mg/kg/injection, schedule: Q01DX005 (ip), vehicle: saline with Tween-80.
The mark [4] stands for this setting: dose: 60.0 mg/kg/injection, schedule: Q01DX005 (ip), vehicle: Klucel (hydroxypropylcellulose) (HPC).
Setting [5] is: dose: 120.0 mg/kg/injection, schedule: Q01DX005 (ip), vehicle: Klucel (hydroxypropylcellulose) (HPC).
Where [6] appears, read: dose: 240.0 mg/kg/injection, schedule: Q01DX005 (ip), vehicle: Klucel (hydroxypropylcellulose) (HPC).
Setting [7] is: dose: 50.0 mg/kg/injection, schedule: Q04DX002 (ip), vehicle: saline with Tween-80.
The mark [8] stands for this setting: dose: 50.0 mg/kg/injection, schedule: Q01DX009 (ip), vehicle: suspension in saline.
Setting [9] is: dose: 100.0 mg/kg/injection, schedule: Q01DX009 (ip), vehicle: suspension in saline.

Turning to `CCCOC(=O)/C=C(\F)C(=O)OCCC`, the T/C reads like this: (dose: 6.25 mg/kg/injection, schedule: Q04DX002 (ip), vehicle: saline with Tween-80) 110 % of control; under setting [1], 116 % of control; under setting [2], 95 % of control.

For the compound `O=C1CC2(C(=O)NN1)C1=C(c3ccccc3CC1)N1CCCC12` (stereo unspecified), the T/C (dose: 11.25 mg/kg/injection, schedule: Q01DX009 (ip), vehicle: Klucel (hydroxypropylcellulose) (HPC)) is 100 % of control; the T/C (dose: 22.5 mg/kg/injection, schedule: Q01DX009 (ip), vehicle: Klucel (hydroxypropylcellulose) (HPC)) was 102 % of control; the T/C (dose: 45.0 mg/kg/injection, schedule: Q01DX009 (ip), vehicle: Klucel (hydroxypropylcellulose) (HPC)) was 100 % of control; the T/C (dose: 90.0 mg/kg/injection, schedule: Q01DX009 (ip), vehicle: Klucel (hydroxypropylcellulose) (HPC)) is 100 % of control.

Take `COC(=O)C1Cc2c([nH]c3ccccc23)C2CCC(=O)N12` (stereo unspecified): the T/C is, setting by setting: (dose: 50.0 mg/kg/injection, schedule: Q01DX009 (ip), vehicle: Klucel (hydroxypropylcellulose) (HPC)) 108 % of control; (dose: 100.0 mg/kg/injection, schedule: Q01DX009 (ip), vehicle: Klucel (hydroxypropylcellulose) (HPC)) 100 % of control; (dose: 200.0 mg/kg/injection, schedule: Q01DX009 (ip), vehicle: Klucel (hydroxypropylcellulose) (HPC)) 104 % of control.

`Nc1ccc2cc(S(=O)(=O)O)cc(O)c2c1N=Nc1ccc(F)cc1`: the T/C by setting is: (dose: 25.0 mg/kg/injection, schedule: Q01DX009 (ip), vehicle: saline) 93 % of control; (dose: 50.0 mg/kg/injection, schedule: Q01DX009 (ip), vehicle: saline) 93 % of control; (dose: 100.0 mg/kg/injection, schedule: Q01DX009 (ip), vehicle: saline) 88 % of control and 91 % of control.

As for `O=C1C(Cl)=C(n2c3ccccc3c3ccccc32)C(=O)c2ccccc21`, the T/C (dose: 6.25 mg/kg/injection, schedule: Q01DX005 (ip), vehicle: saline with Tween-80) was 108 % of control and the T/C under setting [3] is 104 % of control.

In the case of `CC1(C)CN=C(C2=C(O)c3ccccc3C2=O)C1`, the T/C (dose: 100.0 mg/kg/injection, schedule: Q04DX003 (ip), vehicle: saline with Tween-80) was 91 % of control; the T/C (dose: 200.0 mg/kg/injection, schedule: Q04DX003 (ip), vehicle: saline with Tween-80) was 93 % of control; the T/C (dose: 400.0 mg/kg/injection, schedule: Q04DX003 (ip), vehicle: saline with Tween-80) is 90 % of control.

As to `CCOC(=O)c1c[nH]c2ccc3c(nc(C)n3C)c2c1=O`, the T/C runs as follows: (dose: 30.0 mg/kg/injection, schedule: Q01DX005 (ip), vehicle: Klucel (hydroxypropylcellulose) (HPC)) 102 % of control and 91 % of control; under setting [4], 103 % of control and 110 % of control and 91 % of control; under setting [5], 112 % of control (2×) and 113 % of control; under setting [6], 115 % of control and 122 % of control and 123 % of control.

Consider `Oc1c(Cl)cc(Cl)cc1C=NCCSc1ccc(Cl)cc1`, for which the T/C by setting is: (dose: 50.0 mg/kg/injection, schedule: Q01DX005 (ip), vehicle: Klucel (hydroxypropylcellulose) (HPC)) 99 % of control and 108 % of control and 111 % of control; (dose: 100.0 mg/kg/injection, schedule: Q01DX005 (ip), vehicle: DMSO) 115 % of control; (dose: 100.0 mg/kg/injection, schedule: Q01DX005 (ip), vehicle: Klucel (hydroxypropylcellulose) (HPC)) 105 % of control and 115 % of control and 93 % of control; (dose: 200.0 mg/kg/injection, schedule: Q01DX005 (ip), vehicle: DMSO) 117 % of control; (dose: 400.0 mg/kg/injection, schedule: Q01DX005 (ip), vehicle: DMSO) 118 % of control; (dose: 400.0 mg/kg/injection, schedule: Q01DX005 (ip), vehicle: Klucel (hydroxypropylcellulose) (HPC)) 101 % of control and 120 % of control. In addition, the T/C (dose: 600.0 mg/kg/injection, schedule: Q01DX005 (ip), vehicle: DMSO) is 108 % of control.

On to `[Br][Pt+2][Br].[NH-]C1CCCC1[NH-]` (stereo unspecified), for which the T/C was 164 % of control under setting [1]; 197 % of control and 174 % of control under setting [2]; 93 % of control and 212 % of control under setting [7].

As for `COc1c(CBr)c(CBr)c(OC)c2c1C(=O)c1ccccc1C2=O`, the T/C was 100 % of control under setting [3]; 99 % of control (dose: 25.0 mg/kg/injection, schedule: Q01DX005 (ip), vehicle: saline with Tween-80); 100 % of control and 112 % of control (dose: 50.0 mg/kg/injection, schedule: Q01DX005 (ip), vehicle: saline with Tween-80); 95 % of control (dose: 100.0 mg/kg/injection, schedule: Q01DX005 (ip), vehicle: saline with Tween-80).

As to `COc1cccc2c1C(=O)c1c(O)c3c(c(O)c1C2=O)CC(O)(/C(C)=N/NC(=O)CCCCCCCCC(=O)N/N=C(\C)C1(O)Cc2c(O)c4c(c(O)c2C(OC2CC(N)C(O)C(C)O2)C1)C(=O)c1c(OC)cccc1C4=O)CC3OC1CC(N)C(O)C(C)O1` (stereo unspecified), the T/C was 155 % of control (dose: 3.13 mg/kg/injection, schedule: Q01DX009 (ip), vehicle: water); 174 % of control (dose: 6.25 mg/kg/injection, schedule: Q01DX009 (ip), vehicle: water); 221 % of control (dose: 12.5 mg/kg/injection, schedule: Q01DX009 (ip), vehicle: water); 99 % of control (dose: 25.0 mg/kg/injection, schedule: Q01DX009 (ip), vehicle: water).

On to `O=[N+]([O-])c1cc(NC(=S)SCc2ccc3c(c2)OCO3)ccc1Cl`, for which the T/C runs as follows: under setting [8], 110 % of control; under setting [9], 114 % of control; (dose: 200.0 mg/kg/injection, schedule: Q01DX009 (ip), vehicle: suspension in saline) 87 % of control.

Consider `CC(=O)Nc1ccc(S(=O)(=O)NC2C(O)OC(CO)C(O)C2O)cc1` (stereo unspecified), for which the T/C reads like this: (dose: 50.0 mg/kg/injection, schedule: Q01DX005 (ip), vehicle: saline) 95 % of control; (dose: 100.0 mg/kg/injection, schedule: Q01DX005 (ip), vehicle: saline) 105 % of control; (dose: 200.0 mg/kg/injection, schedule: Q01DX005 (ip), vehicle: saline) 97 % of control.

For the compound `Cc1ccc(S(=O)(=O)N(Cl)Cl)cc1`, the T/C was 111 % of control (dose: 6.25 mg/kg/injection, schedule: Q01DX009 (ip), vehicle: Klucel (hydroxypropylcellulose) (HPC)); 99 % of control (dose: 12.5 mg/kg/injection, schedule: Q01DX009 (ip), vehicle: Klucel (hydroxypropylcellulose) (HPC)); 108 % of control (dose: 25.0 mg/kg/injection, schedule: Q01DX009 (ip), vehicle: Klucel (hydroxypropylcellulose) (HPC)).

As to `Cc1c2c(c(O)c3c(O)cccc13)C(=O)C1(O)C(O)=C(C(=O)NCNc3ccc(C(N)=O)cn3)C(=O)C(N(C)C)C1C2` (stereo unspecified), the T/C (dose: 3.12 mg/kg/injection, schedule: Q01DX005 (ip), vehicle: saline) was 111 % of control; the T/C (dose: 6.25 mg/kg/injection, schedule: Q01DX005 (ip), vehicle: saline) was 114 % of control and 117 % of control; the T/C (dose: 12.5 mg/kg/injection, schedule: Q01DX005 (ip), vehicle: saline) was 114 % of control; the T/C (dose: 25.0 mg/kg/injection, schedule: Q01DX005 (ip), vehicle: saline) is 120 % of control.

`CCOC(=O)C(NC(C)=O)(C(=O)OCC)C1CCCC1=O` (stereo unspecified): the T/C is, setting by setting: (dose: 60.0 mg/kg/injection, schedule: Q01DX005 (ip), vehicle: saline) 94 % of control; (dose: 120.0 mg/kg/injection, schedule: Q01DX005 (ip), vehicle: saline) 96 % of control; (dose: 240.0 mg/kg/injection, schedule: Q01DX005 (ip), vehicle: saline) 100 % of control.

Consider `CCCCCCN=C(N)N/N=C(\C)c1ccc2c(c1)Cc1ccccc1-2`, for which the T/C runs as follows: under setting [1], 107 % of control; under setting [2], 100 % of control; under setting [7], 92 % of control; (dose: 100.0 mg/kg/injection, schedule: Q04DX002 (ip), vehicle: saline with Tween-80) 116 % of control.

As to `O=[N+]([O-])c1ccc(/C=C(/c2ccc([N+](=O)[O-])o2)S(=O)(=O)c2ccccc2)o1`, the T/C runs as follows: under setting [8], 95 % of control; under setting [9], 100 % of control.

Consider `Nc1ccccc1S(=O)(=O)Nc1c(N)[nH]c(=S)[nH]c1=O`, for which the T/C under setting [4] was 105 % of control, the T/C under setting [5] was 99 % of control and the T/C under setting [6] was 113 % of control.

Take `C/C=C/C(O)CC1CCCCN1` (stereo unspecified): the T/C (dose: 100.0 mg/kg/injection, schedule: Q04DX003 (ip), vehicle: saline) is 100 % of control.
